# Assay results reported in patent US20100130359A1 (priority 2007, published 2010).
# Experiments:
# [1] = tested on: Phytophthora infestans; format: in vivo, Phytophthora infestans on tomato plants; conditions: 250 ppm active compound, sprayed one day before infection, assessed after 6 days; untreated plants 80% infected
# [2] = tested on: Septoria tritici; test: Protective activity against Septoria leaf blotch of wheat caused by Septoria tritici; format: in vivo, Septoria tritici on wheat seedlings; conditions: 250 ppm active compound, sprayed six days after inoculation, assessed after 14 days; untreated plants 90% infected
# Procedure: The active compounds were prepared as a stock solution comprising 25 mg of active compound which was made up to 10 ml using a mixture of acetone and/or DMSO and the emulsifier Uniperol® EL (wetting agent having emulsifying and dispersing action based on ethoxylated alkylphenols) in a volume ratio of solvent/emulsifier of 99/1. The mixture was then made up to 100 ml with water. This stock solution was diluted with the solvent/emulsifier/water mixture described to the concentration of active compounds stated below. Alternatively, the active compounds were used as a commercial finished formulation and diluted with water to the stated active compound concentration.
# Leaves of potted wheat seedlings were inoculated with a spore suspension of the leaf blotch disease Septoria tritici. The test plants were then placed in a greenhouse at temperatures between 20 and 22° C. and a relative atmospheric humidity of close to 100% and then at temperatures between 16 and 18° C. and an atmospheric humidity of about 70% for 4 days. Six days after the inoculation, the plants were sprayed to runoff point with an aqueous active compound solution having the concentration stated below. After the spray coating had dried on, the plants were returned. After 14 days, the extent of the development of the disease was determined visually in % infection of the entire leaf area.
structure (smiles),measurement,setting,value
"Cc1nnc(Cl)c(-c2c(F)cc(OCCCN(C)C)cc2F)c1-c1ccc(Cl)cc1 [Compound I-1, (3-{-4-[3-chloro-5-(4-chlorophenyl)-6-methylpyridazin-4-yl]-3,5-difluorophenoxy}propyl)dimethylamine]","infection of treated tomato plants (late blight), determined visually",[1],no infection
same,"infection of the entire leaf area of treated wheat plants, determined visually",[2],10%
